Experiment [1] deals with T1, (Homo sapiens, UniProt P08069).
T1 construct: human IGF1R kinase domain residues M954-C1367; made in house; host or cells: baculovirus expression (insect cells)
In words: IGF1R kinase assay (LCCA), IGF 0P. The class given is biochemical. A digest of the protocol:
(§1)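 Read-out is percent ATP remaining, detected by luciferase-luciferin luminescence after a 2 h ambient reaction. Reaction contained 4 nM IGF1R kinase domain (residues M954-C1367, baculovirus-made), 3 μM ATP (near KM), 4 μM poly EY, pH 7.5 with Mg2+/Mn2+. Ten inhibitor concentrations; IC50 by Hill-type curve fit.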

For experiment [2], the target named is T2, IGF 3P (Homo sapiens, UniProt P08069).
T2 construct: human IGF1R kinase domain residues M954-C1367; made in house; host or cells: baculovirus expression (insect cells)
The experiment can be described thus: IGF1R kinase assay (LCCA), IGF 3P. It counts as biochemical. A digest of the protocol: as §1

The mark [3] stands for this setting: IGF1R kinase LCCA assay, IGF 0P.
[4] abbreviates: IGF1R kinase LCCA assay, IGF 3P.

Usually IC50 stands for the concentration that inhibits the measured activity by half. Low values mean greater potency, high ones weaker potency.

Structures are written as SMILES. Where two headings read alike, the source gives them in different places.

T2 sequence (P08069 954-1367): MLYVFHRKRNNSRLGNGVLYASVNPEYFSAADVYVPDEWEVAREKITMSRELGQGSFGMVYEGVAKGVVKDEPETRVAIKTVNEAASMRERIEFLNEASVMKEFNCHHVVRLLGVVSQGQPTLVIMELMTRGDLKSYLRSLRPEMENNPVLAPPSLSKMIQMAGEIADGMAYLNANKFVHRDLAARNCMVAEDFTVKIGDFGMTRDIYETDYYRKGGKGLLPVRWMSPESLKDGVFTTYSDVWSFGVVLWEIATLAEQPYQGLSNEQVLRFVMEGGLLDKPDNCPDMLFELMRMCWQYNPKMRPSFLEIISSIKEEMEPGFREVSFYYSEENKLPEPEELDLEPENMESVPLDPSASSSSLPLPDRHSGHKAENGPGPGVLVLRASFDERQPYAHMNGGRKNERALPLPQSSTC
T1 sequence (P08069 954-1367): as above

For the molecule `c1cc(-c2cc(CNc3nc(Nc4cc(C5CC5)[nH]n4)cc(N4CCOCC4)n3)on2)ncn1` [Example 637, N^4-(5-cyclopropyl-1H-pyrazol-3-yl)-6-morpholin-4-yl-N^2-[(3-pyrimidin-4-ylisoxazol-5-yl)methyl]pyrimidine-2,4-diamine], the values for the IC50 in experiment [1] and in experiment [2] were 0.05 to 0.5 µM and under 0.05 µM, respectively.
Taken in the same sequence, the figures for `CN1CCN(c2cc(Nc3cc(C4CC4)[nH]n3)nc(NCc3cc(-c4ccoc4)no3)n2)CC1` [Example 629, N^4-(5-cyclopropyl-1H-pyrazol-3-yl)-N^2-[(3-furan-3-ylisoxazol-5-yl)methyl]-6-(4-methylpiperazin-1-yl)pyrimidine-2,4-diamine] were 0.05 to 0.5 µM and under 0.05 µM.
In the case of `Nc1nc(Nc2ccc(N3CCOCC3)cc2)ncc1Br` [Example 287], the IC50 in experiment [1] (IGF1R kinase LCCA assay) and in experiment [2] (IGF1R kinase LCCA assay) was over 5 µM in each case.
As for `c1ccc(-c2cc(CNc3nc(Nc4cc(C5CC5)n[nH]4)cc(OCCN4CCCC4)n3)on2)cc1` [Example 514], the half-maximal inhibitory concentration (IC50) in experiment [1] (setting [3]) is 0.05 to 0.5 µM; in experiment [2] (setting [4]), under 0.05 µM.
As for `CCCCNc1cc(C)nc(NCc2cc(-c3ccccc3)no2)n1` [Example 293], the IC50 in experiment [1] (IGF1R kinase LCCA assay) and in experiment [2] (IGF1R kinase LCCA assay) was over 5 µM each time.
As for `Clc1cc(Br)ccc1Nc1ncc(Br)c(Nc2cc(C3CC3)[nH]n2)n1` [Example 143], the half-inhibitory concentration (IC50) lay in the range of 0.5 to 5 µM in experiment [1] (IGF1R kinase LCCA assay) and 0.05 to 0.5 µM in experiment [2] (IGF1R kinase LCCA assay).
Taken in the same sequence, the figures for `Brc1cnc(NCc2cc(-c3ccccc3)no2)nc1Nc1cc(C2CCCC2)n[nH]1` [Example 189] were 0.05 to 0.5 µM and 0.5 to 5 µM.
For `Cc1cc(CNc2nc(Nc3cc(C4CC4)[nH]n3)cc(OCCN3CCCC3)n2)on1` [Example 647, N^4-(5-cyclopropyl-1H-pyrazol-3-yl)-N^2[(3-methylisoxazol-5-yl)methyl]-6-[(2-pyrrolidin-1-ylethyl)oxy]pyrimidine-2,4-diamine], the values for the IC50 in experiment [1] and in experiment [2] were 0.05 to 0.5 µM and under 0.05 µM, respectively.
`Cc1cc(Nc2cc(C3CC3)[nH]n2)nc(NCc2nc(-c3ccccc3)cs2)n1` [Example 252]: the IC50 in experiment [1] (IGF1R kinase LCCA assay) and in experiment [2] (IGF1R kinase LCCA assay) was 0.5 to 5 µM in each case.
Turning to `CCN(CC)CCNC(=O)CCc1ccc(Nc2ncc(Br)c(Nc3cc(C)on3)n2)cc1` [Example 58], the IC50 in experiment [1] (setting [3]) was 0.5 to 5 µM; in experiment [2] (setting [4]), under 0.05 µM.
As to `O=C(Nc1ccc(Cl)c(Nc2ncc(Br)c(Nc3cc(C4CC4)[nH]n3)n2)c1)c1ccccc1` [Example 169], the IC50 in experiment [1] (IGF1R kinase LCCA assay) and in experiment [2] (IGF1R kinase LCCA assay) was 0.5 to 5 µM in each case.
Regarding `Clc1ccc(CCNc2ncc(Br)c(Nc3cc(C4CC4)n[nH]3)n2)c(Cl)c1` [Example 240], the IC50 in experiment [1] (IGF1R kinase LCCA assay) was over 5 µM; in experiment [2] (IGF1R kinase LCCA assay) it was 0.5 to 5 µM.
Taken in the same sequence, the figures for `Fc1c(Cl)cccc1Nc1ncc(Br)c(Nc2cc(C3CC3)n[nH]2)n1` [Example 241] were 0.5 to 5 µM and 0.5 to 5 µM.

For the origin of these results see patent publication US8211929B2, “Pyrimidine derivatives as kinase modulators and method of use” (Exelixis, Inc., priority 2004, dated 2012).
